Biological target: T1, Axl (Homo sapiens, UniProt P30530)
T1 construct: endogenous in cells; host or cells: HeLa cells
T1 sequence (P30530 26-894): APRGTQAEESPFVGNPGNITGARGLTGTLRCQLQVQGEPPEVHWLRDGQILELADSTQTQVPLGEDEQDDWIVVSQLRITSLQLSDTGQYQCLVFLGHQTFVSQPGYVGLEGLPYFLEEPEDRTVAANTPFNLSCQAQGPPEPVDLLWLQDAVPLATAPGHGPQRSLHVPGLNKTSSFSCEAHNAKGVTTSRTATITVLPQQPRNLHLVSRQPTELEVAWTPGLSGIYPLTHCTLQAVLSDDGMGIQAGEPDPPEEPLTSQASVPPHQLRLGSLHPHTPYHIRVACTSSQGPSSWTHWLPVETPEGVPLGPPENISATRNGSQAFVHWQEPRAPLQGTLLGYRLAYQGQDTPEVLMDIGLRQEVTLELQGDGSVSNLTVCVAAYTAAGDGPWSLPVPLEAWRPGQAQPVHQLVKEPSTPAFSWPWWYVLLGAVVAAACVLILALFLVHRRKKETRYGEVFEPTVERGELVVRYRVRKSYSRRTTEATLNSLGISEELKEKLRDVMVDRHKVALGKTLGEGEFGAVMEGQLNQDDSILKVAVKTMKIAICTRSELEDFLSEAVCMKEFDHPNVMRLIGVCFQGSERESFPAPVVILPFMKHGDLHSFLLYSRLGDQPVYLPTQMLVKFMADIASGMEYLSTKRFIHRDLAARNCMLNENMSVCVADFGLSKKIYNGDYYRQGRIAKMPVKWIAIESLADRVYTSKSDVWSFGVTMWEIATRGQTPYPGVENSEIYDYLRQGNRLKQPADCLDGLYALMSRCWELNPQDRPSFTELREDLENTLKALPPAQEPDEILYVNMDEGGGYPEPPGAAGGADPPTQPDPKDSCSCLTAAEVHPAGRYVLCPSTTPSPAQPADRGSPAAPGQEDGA
Test: Phospho-Akt in-cell Western assay
Format: cell-based
Details: Hela cells, stimulated by Axl-antibody cross-linking, phospho-Akt chemiluminescence; Table 1, formula (Ia)
Experimental: Phospho-Akt in-Cell Western Assay
The compounds of the invention were tested in the following assay for their ability to inhibit Axl activity.
• Cell culture plate: 96 well assay plate (Corning 3610), white, clear bottom, tissue-culture treated. • Cells: Hela cells. • Starvation medium: For Axl stimulation: 0.5% FCS (fetal calf serum) in DMEM, plus Axl/Fc (extracellular domain of AXL fused to imunoglobulin Fc region) (R&D, 154-AL) 500 ng/mL. • For EGF (epidermal growth factor) stimulation: 0.5% FCS in DMEM (Dulbecco's modified Eagles medium). • Poly-L-Lysine 0.01% solution (the working solution): 10 μg/ml, dilute In PBS (phosphate buffered saline). • Axl antibody cross-linking: • 1st: Mouse anti-Axl (R&D, MAB154). • 2nd: Biotin-SP-conjugated AffiniPure goat anti-mouse IgG (H+L) (Jackson ImmunoResearch #115-065-003). • Fixing buffer: 4% formaldehyde in PBS. • Wash buffer: 0.1% TritonX-100 in PBS. • Quenching buffer: 3% H2O2, 0.1% Azide in wash buffer, Azide and hydrogen peroxide (H2O2) are added fresh. • Blocking buffer: 5% BSA in TBST (tris buffered saline plus 0.1% Tween 20). • Primary antibody: Rabbit anti-human Phospho-Akt antibody (Cell Signaling 9271): 1×250 diluted in blocking buffer. • Secondary antibody: HRP (horse radish peroxidase)-conjugated Goat anti-Rabbit secondary, stock solution: Jackson ImmunoResearch (Goat anti-Rabbit HRP, #111-035-144) 1:1 diluted in glycerol, store at −20° C. The working solution: 1×2000 dilution of stock in blocking buffer. • Chemiluminescent working solution (Pierce, 37030): SuperSignal ELISA (enzyme linked immunosorbant assay) Pico Chemiluminescent substrate. • Crystal Violet solution: Stock: 2.5% Crystal violet in methanol, filtered and kept at ambient temperature. The working solution: dilute the stock 1:20 with PBS immediately before use. • 10% SDS: working solution: 5% SDS (sodium dodecylsulfate), diluted in PBS Methods: Day 1:
A 96 well TC (tissue culture treated) plate was coated with 10 μg/mL poly-L-Lysine at 37° C. for 30 min, washed twice with PBS, and air-dried for 5 minutes before cells were added. Hela cells were seeded at 10,000 cells/well and the cells were starved in 100 μL starvation medium containing Axl/Fc for 24 hrs.
The cells were pre-treated with test compounds by adding 100 μL of 2× test compound to the starvation medium on the cells. The cells were incubated at 37° C. for 1 hr before stimulation.
The cells were stimulated by Axl-antibody cross-linking as follows: A 5× 1st/2nd Axl antibody mixture was made (37.5 μg/mL 1st/100 μg/mL 2nd) in starvation medium and nutated at 4° C. with thorough mixing for 1-2 hours for clustering. The resulting mix was warmed to 37° C. 50 μL of 5× Axl 1st/2nd of antibody cluster was added to the cells and the cells were incubated at 37° C. for 5 min.
After 5 minutes stimulation, the plate was flicked to remove medium and the plate was tapped onto paper towels. Formaldehyde (4.0% in PBS, 100 μL) was added to fix the cells and the cells were incubated at ambient temperature for 20 min without shaking.
The cells were washed with a plate washer buffer to remove the formaldehyde solution. The plate was flicked to removed excess wash buffer and tapped onto paper towels. Quenching buffer (100 μL) was added to each well and the cells were incubated at ambient temperature for 20 minutes without shaking.
The cells were washed with a plate washer buffer to remove the quenching buffer. Blocking buffer (100 μL) was added and the cells were incubated at ambient temperature for at least an hour with gentle shaking.
The cells were washed with a plate washer buffer and diluted primary antibody (50 μL) was added to each well (blocking buffer was added to the negative control wells instead). The plates were incubated overnight at 4° C. with gentle shaking.
The wash buffer was removed, diluted secondary antibody (100 μL) was added, and the cells were incubated at ambient temperature for 1 hour with gentle shaking. […]

| SMILES | IC50 |
| --- | --- |
| Nc1nc(Nc2ccc3c(c2)CC[C@@H](N(CC2CC2)CC2CC2)CC3)nn1-c1cc2c(nn1)-c1ccccc1CCC2 [Compound 16, 1-(6,7-dihydro-5H-benzo[6,7]cyclohepta[1,2-c]pyridazin-3-yl)-N^3-((7s)-7-(di(cyclopropylmethyl)amino)-6,7,8,9-tetrahydro-5H-benzo[7]annulene-2-yl)-1H-1,2,4-triazole-3,5-diamine] | < 1000 nM |
| CC(C)CCN(CCC(C)C)[C@H]1CCc2ccc(Nc3nc(N)n(-c4cc5c(nn4)-c4cccnc4CCC5)n3)cc2CC1 [Compound 51, 1-(6,7-dihydro-5H-pyrido[2′,3′:6,7]cyclohepta[1,2-c]pyridazin-3-yl)-N^3-((7S)-7-(di(3-methylbutyl)amino)-6,7,8,9-tetrahydro-5H-benzo[7]annulene-2-yl)-1H-1,2,4-triazole-3,5-diamine] | 1000 to 10000 nM |
| COC(=O)CN(C)C1CCc2ccc(Nc3nc(N)n(-c4cc5c(nn4)-c4ccccc4CCC5)n3)cc2CC1 (stereo not drawn) [Compound 4, 1-(6,7-dihydro-5H-benzo[6,7]cyclohepta[1,2-c]pyridazin-3-yl)-N^3-(7-((methoxycarbonylmethyl)(methyl)amino)-6,7,8,9-tetrahydro-5H-benzo[7]annulene-2-yl)-1H-1,2,4-triazole-3,5-diamine] | < 1000 nM |
| CC(C)(C)CN[C@H]1CCc2ccc(Nc3nc(N)n(-c4cc5c(nn4)-c4ccccc4CCC5)n3)cc2CC1 [Compound 34, 1-(6,7-dihydro-5H-benzo[6,7]cyclohepta[1,2-c]pyridazin-3-yl)-N^3-((7S)-7-((2,2-dimethylpropyl)amino)-6,7,8,9-tetrahydro-5H-benzo[7]annulene-2-yl)-1H-1,2,4-triazole-3,5-diamine] | < 1000 nM |
| CC(C)CCN(CCC(C)C)[C@H]1CCc2ccc(Nc3nc(N)n(-c4cc5c(nn4)-c4ccccc4CCC5)n3)cc2CC1 [Compound 40, 1-(6,7-dihydro-5H-benzo[6,7]cyclohepta[1,2-c]pyridazin-3-yl)-N^3-((7S)-7-(di(3-methylbutyl)amino)-6,7,8,9-tetrahydro-5H-benzo[7]annulene-2-yl)-1H-1,2,4-triazole-3,5-diamine] | 1000 to 10000 nM |
| Nc1nc(Nc2ccc3c(c2)CC[C@@H](NCc2cccc(Br)c2)CC3)nn1-c1cc2c(nn1)-c1ccccc1CCC2 [Compound 30, 1-(6,7-dihydro-5H-benzo[6,7]cyclohepta[1,2-c]pyridazin-3-yl)-N^3-((7S)-7-((3-bromophenyl)methyl)amino-6,7,8,9-tetrahydro-5H-benzo[7]annulene-2-yl)-1H-1,2,4-triazole-3,5-diamine] | 1000 to 10000 nM |
| CC(N[C@H]1CCc2ccc(Nc3nc(N)n(-c4cc5c(nn4)-c4ccccc4CCC5)n3)cc2CC1)C(C)(C)C (stereo partly drawn) [Compound 25, 1-(6,7-dihydro-5H-benzo[6,7]cyclohepta[1,2-c]pyridazin-3-yl)-N^3-((7S)-7-((3,3-dimethylbut-2-yl)amino)-6,7,8,9-tetrahydro-5H-benzo[7]annulene-2-yl)-1H-1,2,4-triazole-3,5-diamine] | 1000 to 10000 nM |

Results, then the compound that gave them:

| IC50 | SMILES |
| --- | --- |
| < 1000 nM | CC(=O)NC1CCc2ccc(Nc3nc(N)n(-c4cc5c(nn4)-c4ccccc4CCC5)n3)cc2CC1 (stereo not drawn) [Compound 1, 1-(6,7-dihydro-5H-benzo[6,7]cyclohepta[1,2-c]pyridazin-3-yl)-N^3-(7-(acetamido)-6,7,8,9-tetrahydro-5H-benzo[7]annulene-2-yl)-1H-1,2,4-triazole-3,5-diamine] |
| > 20000 nM | Nc1nc(Nc2cccc3c2CCC(N2CCCC2)CC3)nn1-c1cc2c(nn1)-c1ccccc1CCC2 (stereo not drawn) [Compound 11, 1-(6,7-dihydro-5H-benzo[6,7]cyclohepta[1,2-c]pyridazin-3-yl)-N^3-(7-(pyrrolidin-1-yl)-6,7,8,9-tetrahydro-5H-benzo[7]annulene-1-yl)-1H-1,2,4-triazole-3,5-diamine] |
| 1000 to 10000 nM | Nc1nc(Nc2ccc3c(c2)CC[C@@H](N)CC3)nn1-c1cc2c(nn1)-c1ccccc1CCC2 [Compound 15, 1-(6,7-dihydro-5H-benzo[6,7]cyclohepta[1,2-c]pyridazin-3-yl)-N^3-((7S)-7-amino-6,7,8,9-tetrahydro-5H-benzo[7]annulene-2-yl)-1H-1,2,4-triazole-3,5-diamine] |
| < 1000 nM | CCCN[C@H]1CCc2ccc(Nc3nc(N)n(-c4cc5c(nn4)-c4ccccc4CCC5)n3)cc2CC1 [Compound 18, 1-(6,7-dihydro-5H-benzo[6,7]cyclohepta[1,2-c]pyridazin-3-yl)-N^3-((7S)-7-((propyl)amino)-6,7,8,9-tetrahydro-5H-benzo[7]annulene-2-yl)-1H-1,2,4-triazole-3,5-diamine] |
| 1000 to 10000 nM | Nc1nc(Nc2ccc3c(c2)CCC(N2CCN(CC(=O)O)CC2)CC3)nn1-c1cc2c(nn1)-c1ccccc1CCC2 (stereo not drawn) [Compound 10, 1-(6,7-dihydro-5H-benzo[6,7]cyclohepta[1,2-c]pyridazin-3-yl)-N^3-(7-(4-(carboxymethyl)piperazin-1-yl)-6,7,8,9-tetrahydro-5H-benzo[7]annulene-2-yl)-1H-1,2,4-triazole-3,5-diamine] |
| < 1000 nM | Nc1nc(Nc2ccc3c(c2)CC[C@@H](NC2CCCC2)CC3)nn1-c1cc2c(nn1)-c1ccccc1CCC2 [Compound 22, 1-(6,7-dihydro-5H-benzo[6,7]cyclohepta[1,2-c]pyridazin-3-yl)-N^3-((7S)-7-(cyclopentylamino)-6,7,8,9-tetrahydro-5H-benzo[7]annulene-2-yl)-1H-1,2,4-triazole-3,5-diamine] |
| < 1000 nM | CCOC(=O)CN1CCN(C2CCc3ccc(Nc4nc(N)n(-c5cc6c(nn5)-c5ccccc5CCC6)n4)cc3CC2)CC1 (stereo not drawn) [Compound 9, 1-(6,7-dihydro-5H-benzo[6,7]cyclohepta[1,2-c]pyridazin-3-yl)-N^3-(7-(4-(ethoxycarbonylmethyl)piperazin-1-yl)-6,7,8,9-tetrahydro-5H-benzo[7]annulene-2-yl)-1H-1,2,4-triazole-3,5-diamine] |

Same assay, conditions: Hela cells, stimulated by Axl-antibody cross-linking, phospho-Akt chemiluminescence; Table 3, formula (II)

| IC50 | SMILES |
| --- | --- |
| > 20000 nM | Nc1nc(Nc2ccc(N3CCC(N4CCCC4)CC3)c(F)c2)nn1-c1cc2c(nn1)-c1cccnc1CCC2 [Compound 45, 1-(6,7-dihydro-5H-pyrido[2′,3′:6,7]cyclohepta[1,2-c]pyridazin-3-yl)-N^3-(3-fluoro-4-(4-(pyrrolidin-1-yl)piperidin-1-yl)phenyl)-1H-1,2,4-triazole-3,5-diamine] |

— patent publication US9173882B2, “Polycyclic heteroaryl substituted triazoles useful as Axl inhibitors” (Rigel Pharmaceuticals, Inc., priority 2008, dated 2015)
